Test results as given in publication PMC6354162, “Development of a MD-LC-MS/MS Method to Analyze 3 Bioactive Compounds in Huoxuezhitong Rubber Patch and Application to a Pharmacokinetic Study in Rats” (Evidence-based Complementary and Alternative Medicine : eCAM, 2019).

Experiments:
[1] = cited from earlier work
[2] = Local (subcutaneous) pharmacokinetic study by dermal microdialysis after dermal administration of Huoxuezhitong rubber patch; type: in vivo; conditions: Sprague-Dawley, rat, subcutaneous (dermal) microdialysate, topical, male SD rats, mean ± SD, n = 6; for Cmax: maximum subcutaneous concentration, transdermal Huoxuezhitong rubber patch (3.46 cm2), removed after 720 min, corrected by RR; for AUC(0-t): subcutaneous concentration-time curve, read-out: AUC0-720 (converted); for AUC(0-t) / Tmax / MRT last / MRT inf / half-life: transdermal Huoxuezhitong rubber patch; for Tmax: subcutaneous tissue; for MRT last / MRT inf / half-life: subcutaneous; for MRT last: read-out: MRT0-720 (converted); for MRT inf: read-out: MRT0-∞ (converted); for half-life: terminal elimination half-life
Protocol: Before surgery, a rat with the hair on the abdomen shaved off was anesthetized with Urethane (1.5g/ kg, intraperitoneal injection). Its shell temperature was maintained at about 32.5°C during the experiment with the help of an infrared lamp. The linear microdialysis probe was inserted through a 23-gage intravenous needle. Subsequently, the needle was taken out, leaving the dialysis membranes horizontal under the hairless skin.
Implantation and pretreatment of the probe are the same as that described in Section 2.3. Then a round rubber patch (3.46 cm^2) was pasted on the hairless abdomen of the rat, respectively. After 720 min, the paste was scripted away. The skin was wiped softly and carefully to remove the residual drug. Simultaneously, another three samples was collected. If the rats suddenly died, the collection had to be terminated. All samples were immediately stored at 4°C until injected into the LC/MS/MS system for analysis. The sample concentration was corrected by RR.
The pharmacokinetics analysis was conducted by a noncompartmental approach using the Kinetica 5.1. The pharmacokinetics parameters, such as the maximum subcutaneous concentration (Cmax), time of reaching Cmax (Tmax), the area subcutaneous concentration-time curve (AUC0-t), the mean residence time (MRT), and the terminal elimination half-life (t1/2), were calculated on each individual analyte.

Cmax [2] [ng/mL]	AUC(0-t) [2] [ng·h/mL]	Tmax [2] [h]	MRT last [2] [h]	MRT inf [2] [h]	half-life [2] [h]	Structure (SMILES)	Water solubility [1]
12.6 ± 3.29	83.7	3.11	6.06	9.5	5.62 ± 3.8	COc1ccc(C(C)=O)c(O)c1 [paeonol]	349.8 µg/mL
1.8 ± 1.22	14.7	8.13	9.17	11.5	5.62 ± 0.741	O=C(/C=C/C=C/c1ccc2c(c1)OCO2)N1CCCCC1 [piperine]	insoluble

Structure (SMILES)	Cmax [2] [ng/mL]	AUC(0-t) [2] [ng·h/mL]	Tmax [2] [h]	MRT last [2] [h]	MRT inf [2] [h]	half-life [2] [h]	Water solubility [1]
C=CCc1ccc(O)c(OC)c1 [eugenol]	18.9 ± 7.11	119	4	6.2	7.77	3.81 ± 2.7	insoluble
